Assay results reported in patent US10195258B2, “Tape preparation of WT1 peptide cancer vaccine for transdermal administration” (NITTO DENKO CORPORATION, priority 2013, dated 2019).

System: antigen-specific cellular immunity (IFN-γ-producing spleen cells)
Assay: Mouse immunization test 1 (tape preparation), ELISPOT
Format: in vivo, genetically modified mouse (HLA-A*0201 type MHC)
Conditions: acid added to WT1 peptide tape preparation (Table 1)
Method: Mouse immunization test was performed with the tape preparations using a model animal for immunological evaluation. Evaluation of the immunity induction level was performed by the ELISPOT method. Specifically, the hair of the back of the mouse was cut. The mouse was kept until it recovered from the skin damage due to the hair cutting. After that, a sample was applied to the back of the mouse for the predetermined time, and then removed. Then, the mouse was kept for predetermined days and the level of the antigen-specific cellular immunity was evaluated. After predetermined days from the application of the sample, the spleen was isolated and a spleen cell suspension was prepared. Spleen cells (3×10^6 cells/well) and the antigen peptide (100 μM) together with the culturing medium were placed into a well of an ELISPOT plate on which an anti-mouse IFN-γ antibody had been immobilized. The plate was cultured for 20 hours under the condition of 37° C. and 5% CO2. The number of the spots representing IFN-γ-producing cells (spot number/3×10^6 cells) was evaluated by the ELISPOT method.
The amount of administration of the tape preparation was set to 0.7 cm^2 as described above, the number of administrations was (24 hr/week)×once, and extraction of the spleen was carried out 6 days after the administration. The mouse used for the experiment was a genetically modified mouse by which cellular immunity induction caused by HLA-A*0201 type MHC-restricted peptide can be evaluated.
In Example 8, administration was carried out on skin that was injured with a microcutter (MICRO FEATHER No. 7330G, manufactured by Feather Safety Razor Co., Ltd.).

Structure (SMILES)	Promotion of cellular immunity induction by acid as second cellular immunity induction promoter
CCCCCCCCCC(=O)O [decanoic acid]	effective
CCCCCCCC/C=C\CCCCCCCC(=O)O [oleic acid]	particularly effective
CC(O)C(=O)O (stereo not drawn) [lactic acid]	particularly effective
CCCCCCCCCCCCCCCCCC(=O)O [stearic acid]	effective
CCCCCCCCCCCC(=O)O [lauric acid]	particularly effective
CCCCCCCCCCCCCCCC(=O)O [palmitic acid]	effective
CCCCCCCC(=O)O [octanoic acid]	effective
CC(C)CCCCCCCCCCCCCCC(=O)O [isostearic acid]	particularly effective
CCCCCCCCCCCCCC(=O)O [myristic acid]	particularly effective
